According to patent US20160318938A1, “CRYSTALS (2) OF PYRAZINO[2,1-c][1,2,4]TRIAZINE COMPOUND” (PRISM PHARMA CO., LTD., priority 2013, published 2016):
Entries after “also recorded” stand apart in the source; their conditions may differ.

What was measured:
Type in all cases: physicochemical
[1] = Hygroscopicity evaluation by dynamic water adsorption measuring apparatus; conditions: 25° C.; for variation in the mass (weight) with increasing relative humidity: 5-95% RH stepwise; for hygroscopicity: 5-95% RH
Procedure: The hygroscopicity of Examples 1, 3 and Comparative Example 1 was evaluated by a dynamic water adsorption measuring apparatus. A sample mounting part of the apparatus was maintained at 25° C., and the relative humidity (RH) was set stepwisely within the range of 5-95% RH. The humidity was controlled by changing the relative flow of 0% RH dry nitrogen and 100% RH humidified nitrogen. The sample weight was confirmed at 2 min intervals by a micro balance, and the humidity was sequentially changed at the time point when the weight shift range for 5 min was below 0.01%.

[2] = Relationship between water content of solvent and crystal form (heptane/ethanol 16:3); conditions: for crystal form: overnight
Procedure: To a saturated solution of crystal C in a mixed solvent of heptane and ethanol (volume ratio 16:3) were added crystal C (100 mg) and crystal D (100 mg) at a temperature shown in Table 2, water in the amount shown in Table 6 was further added, and the mixture was stood overnight. The water content of the solution after the standing was measured by the Karl Fischer method, and the crystal form of compound 1 was measured by powder X-ray diffraction. The amount of the water added is shown in mass % relative to the mass of the whole solvent.

[3] = Stability evaluation of crystals A, B and C (mixture of equal amounts in supersaturated solution); conditions: for form of the crystal obtained: equal amounts of crystals A, B and C, one day; for relative stability among crystals A, B and C: room temperature or 40° C.
Procedure: To a supersaturated solution of compound 1 using the solvents shown in Table 8 was added a mixture of equal amounts of crystals A, B and C at room temperature or 40° C., and the form of the crystal obtained one day later was observed using powder X-ray diffraction.

[4] = Stability evaluation of crystal A: slurry in solvents, crystal form by powder X-ray diffraction and DSC; conditions: room temperature, 2 days
Procedure: Crystal A was added in excess to the solvents described in Table 1 to give a slurry, which was stood at room temperature for 2 days, and the crystal form thereof was measured using powder X-ray diffraction and differential scanning calorimeter (DSC).

[5] = Thermal stability of crystals A and D (oven heating overnight, powder X-ray diffraction); conditions: for crystal form after heating: oven, overnight
Procedure: Crystals A and D were heated in an oven at 50° C. or 70° C. overnight, and transition of each crystal was confirmed by powder X-ray diffraction.

[6] = single crystal form in heptane/ethanol (16:3) with water content of less than 0.5%, stood overnight

For `C[C@H]1C2N(C(=O)CN(C)N2C(=O)NCc2ccccc2)[C@@H](Cc2ccc(O)cc2)C(=O)N1Cc1cccc2cccnc12` (stereo partly drawn) [Comparative Example 1, (6S,9S)—N-benzyl-6-(4-hydroxybenzyl)-2,9-dimethyl-4,7-dioxo-8-(quinolin-8-ylmethyl)octahydro-1H-pyrazino[2,1-c][1,2,4]triazine-1-carboxamide], the “variation in the mass (weight) with increasing relative humidity” value [1] was “weight increased along with an increase in the humidity”.

In the case of `C[C@H]1C2N(C(=O)CN(C)N2C(=O)NCc2ccccc2)[C@@H](Cc2ccc(O)cc2)C(=O)N1Cc1cccc2cccnc12` (stereo partly drawn) [compound 1, (6S,9S)—N-benzyl-6-(4-hydroxybenzyl)-2,9-dimethyl-4,7-dioxo-8-(quinolin-8-ylmethyl)octahydro-1H-pyrazino[2,1-c][1,2,4]triazine-1-carboxamide], the crystal form ([2]; crystal C + crystal D (100 mg each) in heptane/ethanol 16:3, 5° C., water added 0 mass %, water content 0.32%) is reported as “crystal C”, the crystal form ([2]; crystal C + crystal D (100 mg each) in heptane/ethanol 16:3, 5° C., water added 0.5 mass %, water content 0.93%) is reported as “crystal D” and the crystal form ([2]; crystal C + crystal D (100 mg each) in heptane/ethanol 16:3, 5° C., water added 1.0 mass %, water content 1.56%) is reported as “crystal D”. For the same molecule, the crystal form ([2]; crystal C + crystal D (100 mg each) in heptane/ethanol 16:3, 40° C., water added 0 mass %, water content 0.33%) was “crystal C”, the crystal form ([2]; crystal C + crystal D (100 mg each) in heptane/ethanol 16:3, 40° C., water added 0.5 mass %, water content 0.94%) was “crystal D” and the crystal form ([2]; crystal C + crystal D (100 mg each) in heptane/ethanol 16:3, 40° C., water added 1.0 mass %, water content 1.55%) was “crystal D”. For the same molecule, the crystal form ([2]; crystal C + crystal D (100 mg each) in heptane/ethanol 16:3, room temperature, water added 0 mass %, water content 0.33%) was “crystal C”, the crystal form ([2]; crystal C + crystal D (100 mg each) in heptane/ethanol 16:3, room temperature, water added 0.5 mass %, water content 0.93%) was “crystal D” and the crystal form ([2]; crystal C + crystal D (100 mg each) in heptane/ethanol 16:3, room temperature, water added 1.0 mass %, water content 1.57%) was “crystal D”. The crystal form obtained ([2]; crystal C + crystal D in heptane/ethanol 16:3, amount of water further added exceeded 2 mass %) was “crystal A was obtained”, the crystal form obtained ([2]; crystal C + crystal D in heptane/ethanol 16:3, water content less than 0.5%) was “crystal C was obtained” and the crystal form obtained ([2]; crystal C + crystal D in heptane/ethanol 16:3, water content not less than 0.5%) was “crystal D was obtained”. The “form of the crystal obtained” value ([3]; MTBE, 40° C.) was “crystal C”, the “form of the crystal obtained” value ([3]; MTBE, room temperature) was “crystal C” and the “form of the crystal obtained” value ([3]; ethyl acetate, 40° C.) was “crystal C”. The “form of the crystal obtained” value ([3]; ethyl acetate, room temperature) was “crystal C”, the “form of the crystal obtained” value ([3]; isopropanol, 40° C.) was “crystal C” and the “form of the crystal obtained” value ([3]; isopropanol, room temperature) was “crystal C”. The “form of the crystal obtained” value ([3]; isopropyl acetate, 40° C.) was “crystal C”, the “form of the crystal obtained” value ([3]; isopropyl acetate, room temperature) was “crystal C” and the “form of the crystal obtained” value ([3]; water, 40° C.) was “crystal A”. For the same molecule, the “form of the crystal obtained” value ([3]; water, room temperature) was “crystal A”.

With `C[C@H]1C2N(C(=O)CN(C)N2C(=O)NCc2ccccc2)[C@@H](Cc2ccc(O)cc2)C(=O)N1Cc1cccc2cccnc12` (stereo partly drawn) [crystal A, (6S,9S)—N-benzyl-6-(4-hydroxybenzyl)-2,9-dimethyl-4,7-dioxo-8-(quinolin-8-ylmethyl)octahydro-1H-pyrazino[2,1-c][1,2,4]triazine-1-carboxamide] the hygroscopicity [1] was “low”, the “variation in the mass (weight) with increasing relative humidity” value ([1]; listed as Example 1) was “weight did not increase” and the crystal form ([4]; crystal A slurry in MTBE) was “transition did not occur; also recorded: crystal A”. The crystal form ([4]; crystal A slurry in acetonitrile) was “transition did not occur; also recorded: crystal A”, the crystal form ([4]; crystal A slurry in ethanol) was “transition to crystal C occurred gradually” and the crystal form ([4]; crystal A slurry in ethyl acetate) was “transition to crystal C occurred gradually”. For the same molecule, the crystal form ([4]; crystal A slurry in isopropanol) was “transition to crystal C occurred gradually”, the crystal form ([4]; crystal A slurry in isopropyl acetate) was “transition did not occur; also recorded: crystal A” and the crystal form ([4]; crystal A slurry in methanol) was “transition to crystal B occurred”. For the same molecule, the crystal form ([4]; crystal A slurry in methylethyl ketone) was “transition did not occur; also recorded: crystal A”, the crystal form ([4]; crystal A slurry in tetrahydrofuran) was “transition to an amorphous form occurred” and the crystal form ([4]; crystal A slurry in water) was “transition did not occur; also recorded: crystal A”. For the same molecule, the “relative stability to heat” value ([5]; crystal A versus crystal D, 50° C. overnight) was “more stable to heat than crystal D”, the “crystal form after heating” value ([5]; 50° C.) was “did not show transition; also recorded: not transited; also recorded: crystal A” and the “crystal form after heating” value ([5]; 70° C.) was “transits to an amorphous form”. The “relative stability among crystals A, B and C” value ([3]; water) was “most stable in water”.

For `C[C@H]1C2N(C(=O)CN(C)N2C(=O)NCc2ccccc2)[C@@H](Cc2ccc(O)cc2)C(=O)N1Cc1cccc2cccnc12` (stereo partly drawn) [crystal C, (6S,9S)—N-benzyl-6-(4-hydroxybenzyl)-2,9-dimethyl-4,7-dioxo-8-(quinolin-8-ylmethyl)octahydro-1H-pyrazino[2,1-c][1,2,4]triazine-1-carboxamide], the hygroscopicity [1] was “low”, the “variation in the mass (weight) with increasing relative humidity” value ([1]; listed as Example 3) was “weight did not increase” and the “transition of crystal form” value [2, 6] was “transition of crystal form did not occur; also recorded: not transited”. The “transition of crystal form” value ([2]; single crystal form in heptane/ethanol (16:3) with water content of not less than 0.5%, left overnight) was “transited to crystal D” and the “relative stability among crystals A, B and C” value ([3]; isopropanol, isopropyl acetate, MTBE or ethyl acetate) was “most stable in other nonaqueous solvents”.

With `C[C@H]1C2N(C(=O)CN(C)N2C(=O)NCc2ccccc2)[C@@H](Cc2ccc(O)cc2)C(=O)N1Cc1cccc2cccnc12` (stereo partly drawn) [crystal D, (6S,9S)—N-benzyl-6-(4-hydroxybenzyl)-2,9-dimethyl-4,7-dioxo-8-(quinolin-8-ylmethyl)octahydro-1H-pyrazino[2,1-c][1,2,4]triazine-1-carboxamide] the “transition of crystal form” value [2, 6] was “transition to crystal C occurred; also recorded: transits to crystal C”, the “crystal form after heating” value ([5]; 50° C.) was “A part of crystal D transits to an amorphous form; also recorded: mixture of crystal D” and the “crystal form after heating” value ([5]; 70° C.) was “transits to an amorphous form”.
